In patent publication US4921528A, “Substituted azolylmethyl-cyclopropyl-carbinol derivatives” (Bayer Aktiengesellschaft, priority 1984, dated 1990):

What was measured:
Format in all cases: in vivo
Venturia inaequalis = test: Venturia test (apple)/protective; settings: young apple plants sprayed, then inoculated; evaluation 12 days after inoculation; compared with comparative substance (c)
Description: Venturia test (apple)/protective/ Solvent: 4.7 parts by weight of acetone Emulsifier: 0.3 parts by weight of alkylaryl polyglycol ether. To produce a suitable preparation of active compound, 1 part by weight of active compound is mixed with the stated amounts of solvent and emulsifier, and the concentrate is diluted with water to the desired concentration. To test for protective activity, young plants are sprayed with the preparation of active compound until dripping wet. After the spray coating has dried on, the plants are inoculated with an aqueous conidia suspension of the apple scab causative organism (Venturia inaequalis) and then remain in an incubation cabinet at 20° C. and 100% relative atmospheric humidity for 1 day. The plants are then placed in a greenhouse at 20° C. and a relative atmospheric humidity of about 70%. Evaluation is carried out 12 days after the inoculation.

Rice = test: Inhibition of growth of rice; settings: pots placed in active compound solution; length determined after development of the third leaf
Description: Inhibition of growth of rice
(§1) Solvent: 30 parts by weight of dimethylformamide
(§2) Emulsifier: 1 part by weight of polyoxyethylene sorbitan monolaurate.
To prepare a suitable preparation of active compound, 1 part by weight of active compound is mixed with the stated amounts of solvent and emulsifier, and the mixture is made up to the desired concentration with water.
Rice is grown in climatic chambers in small pots containing vermiculite, until the first leaf reaches a size of 1-2 cm. At this stage, the pots are placed in the prepared active compound solutions to a height corresponding to half the height of the pot.
After the development of the third leaf, the length of all plants is determined, and expressed as a percentage of the length of the control plants. 100% means growth corresponding to that of the control plants, values below 100% mean inhibition of growth, and values above 100% mean promotion of growth.

Soya bean plants = test: Inhibition of growth of soya beans; settings: sprayed until dripping wet; measured after 3 weeks; compared with prior-art compound (D)
Description: Inhibition of growth of soya beans
as §1, §2
(§3) To produce a suitable preparation of active compound, 1 part by weight of active compound is mixed with the stated amounts of solvent and emulsifier and the mixture is made up to the desired concentration with water.
(§4) Soya bean plants are grown in a greenhouse until the first secondary leaf has unfolded completely. In this stage, the plants are sprayed with the preparations of active compound until dripping wet. After 3 weeks, the additional growth is measured on all the plants and the inhibition of growth in per cent of the additional growth of the control plants is calculated. 100% inhibition of growth means that growth has stopped and 0% denotes a growth corresponding to that of the control plants.

Barley plants = test: Inhibition of growth of barley; settings: sprayed until dripping wet; measured after 3 weeks; compared with prior-art compounds (A), (B), (C) and (D)
Description: Inhibition of growth of barley
as §1, §2, §3
as §4, with “Barley plants” for “Soya bean plants”, “greenhouse to” for “greenhouse until”, “the 2-leaf stage.” for “the first secondary leaf has unfolded completely.”, “all” for “all the”

Cotton plants = test: Inhibition of growth of cotton; settings: sprayed until dripping wet; measured after 3 weeks; compared with prior-art compound (A)
Description: Inhibition of growth of cotton
as §1
Emulsifier: 1 part by weight of […] sorbitan monolaurate.
as §3
Cotton plants are grown in a greenhouse until the 5th secondary leaf has unfolded completely. In this stage, the plants are sprayed with the preparations of active compound until dripping wet. After 3 weeks, the additional growth of the plants is measured and the inhibition of growth in per cent of the additional growth of the control plants is calculated. 100% inhibition of growth means that growth has stopped and 0% denotes a growth corresponding to that of the control plants.

| SMILES | protective activity against apple scab (Venturia inaequalis) (Venturia inaequalis) | inhibition of growth of rice (length of plants as percentage of control plants) (Rice) | inhibition of growth of soya beans (per cent of additional growth of control plants) (Soya bean plants) | inhibition of growth of barley (per cent of additional growth of control plants) (Barley plants) | inhibition of growth of cotton (per cent of additional growth of control plants) (Cotton plants) |
| --- | --- | --- | --- | --- | --- |
| CCSC1(C(O)(Cn2cncn2)c2ccc(Cl)cc2)CC1 (stereo not shown) [Compound I-1, 1-(4-chlorophenyl)-1-[1-(ethylthio)-1-cyclopropyl]-2-(1,2,4-triazol-1-yl)1-ethanol] | better activity than the known comparative substance (c) | pronounced inhibition of growth |  |  |  |
| CC[S+]([O-])C1(C(O)(Cn2cncn2)c2ccc(Cl)cc2)CC1 (stereo not shown) [Compound I-3, 1-(4-chlorophenyl)-1-[1-(ethylsulphinyl)-1-cyclopropyl]-2-(1,2,4-triazol-yl)1-ethanol] |  | pronounced inhibition of growth | more pronounced inhibition of growth than the compound (D) | more pronounced inhibition of growth than the compounds (A), (B), (C) and (D) | more pronounced inhibition of growth than the compound (A) |
| OC(Cn1cncn1)(c1ccc(Cl)cc1)C1(Oc2ccccc2)CC1 (stereo not shown) [Compound I-5] |  | pronounced inhibition of growth |  | more pronounced inhibition of growth than the compounds (A), (B), (C) and (D) | more pronounced inhibition of growth than the compound (A) |
| CCCCSC1(C(O)(Cn2cncn2)c2ccc(Cl)cc2)CC1 (stereo not shown) [Compound I-6] |  | pronounced inhibition of growth |  |  |  |
